This passage reports EC50 results from ChEMBL document CHEMBL1177794, “Broad spectrum alkynyl inhibitors of T315I Bcr-Abl” (Bioorg Med Chem Lett, 2010).

What is called EC50 is the concentration that produces a half-maximal response. A higher EC50 goes with lower potency in that assay.

What all share (type): functional, cell-based
Assay [1] has as its system BaF3. Nature of the assay: Antiproliferative activity against mouse BAF3 cells expressing wild type Bcr-Abl.
Assay [2] deals with BaF3. Nature of the assay: Antiproliferative activity against mouse BAF3 cells expressing Bcr-Abl T315I mutant.
Assay [3] concerns BaF3. The assay can be described thus: Antiproliferative activity against mouse BAF3 cells.

`Cc1cn(-c2cc(NC(=O)c3ccc(C)c(C#Cc4cnc5[nH]ccc5c4)c3)cc(C(F)(F)F)c2)cn1`: the figures for the EC50 in the assay on BaF3 [1], in the assay with BaF3 [2] and in the assay on BaF3 [3] were 37 nM, 470 nM and above 10000 nM, respectively.

Consider `CCN1CCN(Cc2ccc(NC(=O)c3ccc(C)c(C#Cc4ccc(C(=O)NC)nc4)c3)cc2C(F)(F)F)CC1`, for which the concentration for a half-maximal effect (EC50) in the assay with BaF3 [1] was 41 nM; in the assay on BaF3 [2] it was 2580 nM; with BaF3 [3], 3980 nM.

As to `CCN1CCN(Cc2ccc(C(=O)Nc3ccc(C)c(C#Cc4cnc5[nH]ccc5c4)c3)cc2C(F)(F)F)CC1`, the concentration for a half-maximal effect (EC50) worked out at 70 nM in the assay with BaF3 [1], 2630 nM in the assay with BaF3 [2] and 7860 nM in the assay on BaF3 [3].

In the case of `CCN1CCN(Cc2ccc(NC(=O)c3ccc(C)c(C#Cc4cnc5nccnc5c4)c3)cc2C(F)(F)F)CC1`, the EC50 in the assay on BaF3 [1] worked out at 37 nM; with BaF3 [2], 5520 nM; in the assay on BaF3 [3] it was 3320 nM.

Regarding `CCN1CCN(Cc2ccc(NC(=O)c3ccc(C)c(C#Cc4cnc5[nH]cnc5c4)c3)cc2C(F)(F)F)CC1`, the EC50 was below 1 nM in the assay with BaF3 [1], 14 nM with BaF3 [2] and 60 nM with BaF3 [3].

For the compound `CCN1CCN(Cc2ccc(NC(=O)c3cccc(C#Cc4cnc5[nH]ccc5c4)c3)cc2C(F)(F)F)CC1`, the concentration for a half-maximal effect (EC50) in the assay on BaF3 [1] is 11 nM; in the assay with BaF3 [2], 220 nM; with BaF3 [3], above 10000 nM.

In the case of `CCN1CCN(Cc2ccc(NC(=O)c3ccc(C)c(C#Cc4cnccn4)c3)cc2C(F)(F)F)CC1`, the EC50 came to 6 nM with BaF3 [1], 3030 nM in the assay with BaF3 [2] and 2490 nM in the assay with BaF3 [3].

`CCN1CCN(Cc2ccc(NC(=O)c3ccc(C)c(C#Cc4cnc5[nH]c(C)cc5c4)c3)cc2C(F)(F)F)CC1`: the EC50 is 26 nM in the assay with BaF3 [1], 560 nM with BaF3 [2] and 1000 nM in the assay on BaF3 [3].

`CCN1CCN(Cc2ccc(NC(=O)c3ccc(C)c(C#Cc4cnc(N)cn4)c3)cc2C(F)(F)F)CC1`: the concentration for a half-maximal effect (EC50) in the assay with BaF3 [1] is below 1 nM; with BaF3 [2], 165 nM; in the assay with BaF3 [3], 860 nM.

For `CCN1CCN(Cc2ccc(NC(=O)c3ccc(C)c(C#Cc4ccc(NC(=O)C5CC5)nc4)c3)cc2C(F)(F)F)CC1`, the 50% effective concentration (EC50) is below 1 nM in the assay on BaF3 [1], 13 nM in the assay with BaF3 [2] and 1800 nM with BaF3 [3].

With `CCN1CCN(Cc2ccc(NC(=O)c3ccc(C)c(C#Cc4ccc(NC(C)=O)nc4)c3)cc2C(F)(F)F)CC1`, the EC50 in the assay with BaF3 [1] was below 1 nM; in the assay with BaF3 [2], 10 nM; in the assay on BaF3 [3], 2050 nM.

Turning to `CCN1CCN(Cc2ccc(NC(=O)c3ccc(C)c(C#Cc4cncnc4)c3)cc2C(F)(F)F)CC1`, the 50% effective concentration (EC50) in the assay on BaF3 [1] was below 1 nM; in the assay with BaF3 [2] it was 990 nM; in the assay on BaF3 [3], 2190 nM.

In the case of `CCN1CCN(Cc2ccc(NC(=O)c3ccc(C)c(C#Cc4coc5ccccc45)c3)cc2C(F)(F)F)CC1`, the concentration for a half-maximal effect (EC50) worked out at 240 nM in the assay with BaF3 [1], 8370 nM in the assay on BaF3 [2] and 6760 nM with BaF3 [3].

Regarding `Cc1cn(-c2cc(NC(=O)c3cccc(C#Cc4cnc5[nH]ccc5c4)c3)cc(C(F)(F)F)c2)cn1`, the concentration giving a half-maximal response (EC50) with BaF3 [1] came to 15 nM; with BaF3 [2] it was 300 nM; in the assay with BaF3 [3] it was 2830 nM.
